# Laboratory results as given in PubChem BioAssay AID2693 (Broad Institute, 2010).
# Records with an inconclusive call do not appear. The source made the active and inactive calls.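 The calls were made as follows: active = a dose response whose lowest growth-blocking dose, signal 3 SD under solvent wells, sits below the top dose; inconclusive = compound fluoresces without dose trend, or replicates split around top dose; inactive = no growth loss up to the top dose.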
# Tested on: S. cerevisiae SKY197-pL101 growth, alamar blue fluorescence, 9 h
# Assay: S. cerevisiae growth inhibition, dose response, counter-screen for polyadenylation inhibitor project, Alamar Blue fluorescence, MIC (AID 2693)
row,SMILES,MIC
1,O=C(Oc1c(-c2ccccc2)c(=O)n2c3c(cccc13)CC2)c1cccc([N+](=O)[O-])c1,> 50 µM (inactive)
2,O=C(COC(=O)Cc1ccc(S(=O)(=O)N2CCOCC2)s1)NCc1ccc(Cl)cc1,> 50 µM (inactive)
3,Cc1ccc(Nc2c(-c3ccc(C)o3)nc3ncccn23)cc1,> 50 µM (inactive)
4,COc1cc(/C=C2/CC/C(=C/c3ccc(O)c(OC)c3)C2=O)ccc1O,> 50 µM (inactive)
5,N#CC1(C#N)C2=C(CCCC2)NC(c2ccccc2)C1(C#N)C#N (stereo unspecified),50 µM
6,Nc1ncnc2c1ncn2C1OC(CO)CC1O (stereo unspecified),> 50 µM (inactive)
7,CCOc1cc(/C=C2\N=C(SC(C)C(N)=O)N(c3ccc(OC(F)F)cc3)C2=O)ccc1O (stereo unspecified),> 50 µM (inactive)
8,CC(=O)c1ccc(Sc2ccccc2)c([N+](=O)[O-])c1,> 50 µM (inactive)
9,Cc1ccc(-c2nn3c(C)nnc3s2)cc1NC(=O)CSc1ccc(Cl)cc1,> 50 µM (inactive)
10,CCN1/C(=C\C=C\c2sc3ccccc3[n+]2CC)Sc2ccccc21,4.8 µM
11,O=C(O)CN1C(=O)/C(=C\c2ccc(N3CCCCC3)o2)SC1=S,37 µM
12,COc1cc(/C=C2/SC(=S)N(Cc3ccccc3)C2=O)cc(OC)c1O,> 50 µM (inactive)
13,N#C/C(=C/c1ccc([N+](=O)[O-])o1)c1nc2ccccc2[nH]1,2.3 µM
14,COc1cc(/C=C2\SC(=S)N(NC(=O)c3ccncc3)C2=O)ccc1O,25 µM
15,Cc1ccc(C(=O)c2no[n+]([O-])c2C(=O)c2ccc(C)cc2)cc1,3.1 µM
16,Cc1ccc2nc(/C(C#N)=C/c3ccc([N+](=O)[O-])o3)[nH]c2c1,2.3 µM
